≈ marks a conversion by molar mass, not a printed value.
How the values were obtained:
Enterovirus C [1] = assay: Antiviral activity against Poliovirus 10243 serotype PV2 obtained from immunodeficient chronic excretor infected in […] LLC-MK2 cells assessed as inhibition of viral-replication induced cytopathic effect; assay type: functional, organism-based; details: 10243 serotype PV2, LLC-MK2
Enterovirus C [2] = assay: Antiviral activity against Poliovirus 10221 serotype PV2 obtained from immunodeficient chronic excretor infected in […] LLC-MK2 cells assessed as inhibition of viral-replication induced cytopathic effect; assay type: functional, organism-based; details: 10221 serotype PV2, LLC-MK2
Enterovirus C [3] = assay: Antiviral activity against Poliovirus 10228 serotype PV2 obtained from immunodeficient chronic excretor infected in […] LLC-MK2 cells assessed as inhibition of viral-replication induced cytopathic effect; assay type: functional, organism-based; details: 10228 serotype PV2, LLC-MK2
Enterovirus C [4] = assay: Antiviral activity against Poliovirus 10226 serotype PV2 obtained from immunodeficient chronic excretor infected in […] LLC-MK2 cells assessed as inhibition of viral-replication induced cytopathic effect; assay type: functional, organism-based; details: 10226 serotype PV2, LLC-MK2
Enterovirus C [5] = assay: Antiviral activity against Poliovirus 10227 serotype PV2 obtained from immunodeficient chronic excretor infected in […] LLC-MK2 cells assessed as inhibition of viral-replication induced cytopathic effect; assay type: functional, organism-based; details: 10227 serotype PV2, LLC-MK2
Enterovirus C [6] = assay: Antiviral activity against Poliovirus Lansing serotype PV2 infected in […] LLC-MK2 cells assessed as inhibition of viral-replication induced cytopathic effect; assay type: functional, organism-based
Enterovirus C [7] = assay: Antiviral activity against Poliovirus MEF-1 serotype PV2 infected in […] LLC-MK2 cells assessed as inhibition of viral-replication induced cytopathic effect; assay type: functional, organism-based; details: MEF-1 serotype PV2, LLC-MK2
Enterovirus C [8] = assay: Antiviral activity against Poliovirus P712 serotype PV2 vaccine-derived infected in […] LLC-MK2 cells assessed as inhibition of viral-replication induced cytopathic effect; assay type: functional, organism-based
Enterovirus C [9] = assay: Antiviral activity against Poliovirus PV2-P712 serotype PV2 obtained from immunodeficient chronic excretor infected in […] LLC-MK2 cells assessed as inhibition of viral-replication induced cytopathic effect; assay type: functional, organism-based
Enterovirus C [10] = assay: Antiviral activity against Poliovirus 10804 serotype PV3 obtained from immunodeficient chronic excretor infected in […] LLC-MK2 cells assessed as inhibition of viral-replication induced cytopathic effect; assay type: functional, organism-based; details: 10804 serotype PV3, LLC-MK2
Enterovirus C [11] = assay: Antiviral activity against Poliovirus 10805 serotype PV3 infected in […] LLC-MK2 cells assessed as inhibition of viral-replication induced cytopathic effect; assay type: functional, organism-based; details: 10805 serotype PV3, LLC-MK2
Enterovirus C [12] = assay: Antiviral activity against Poliovirus Saukett serotype PV3 infected in […] LLC-MK2 cells assessed as inhibition of viral-replication induced cytopathic effect; assay type: functional, organism-based
Enterovirus C [13] = assay: Antiviral activity against Poliovirus Leon serotype PV3 infected in […] LLC-MK2 cells assessed as inhibition of viral-replication induced cytopathic effect; assay type: functional, organism-based
Enterovirus C [14] = assay: Antiviral activity against Poliovirus PV3-Leon serotype PV3 vaccine-derived infected in […] LLC-MK2 cells assessed as inhibition of viral-replication induced cytopathic effect; assay type: functional, organism-based
[15] = Selectivity index, ratio of CC50 for human HeLa cells to EC50 for poliovirus; assay type: toxicity, cell-based; details: read-out: Ratio CC50/EC50
[16] = Selectivity index, ratio of CC50 for african green monkey BGMK cells to EC50 for poliovirus; assay type: toxicity, cell-based; details: read-out: Ratio CC50/EC50
HeLa = assay: Cytotoxicity against human HeLa cells after 18 to 24 hrs by MTT assay; assay type: cell-based
[17] = Cytotoxicity against african green monkey BGMK cells after 18 to 24 hrs by MTT assay; assay type: cell-based; details: chlorocebus aethiops
Coxsackievirus A9 = assay: Antiviral activity against Coxsackievirus serotype A9 infected in african green monkey BGMK cells assessed as inhibition of virus induced cytopathic effect after 18 to 24 hrs; assay type: functional, organism-based; details: Enterovirus B
Coxsackievirus B1 = assay: Antiviral activity against Coxsackievirus serotype B1 infected in african green monkey BGMK cells assessed as inhibition of virus induced cytopathic effect after 18 to 24 hrs; assay type: functional, organism-based; details: Enterovirus B
Coxsackievirus B2 = assay: Antiviral activity against Coxsackievirus serotype B2 infected in african green monkey BGMK cells assessed as inhibition of virus induced cytopathic effect after 18 to 24 hrs; assay type: functional, organism-based; details: Enterovirus B
Coxsackievirus B3 = assay: Antiviral activity against Coxsackievirus serotype B3 infected in african green monkey BGMK cells assessed as inhibition of virus induced cytopathic effect after 18 to 24 hrs; assay type: functional, organism-based; details: Enterovirus B
Coxsackievirus B4 = assay: Antiviral activity against Coxsackievirus serotype B4 infected in african green monkey BGMK cells assessed as inhibition of virus induced cytopathic effect after 18 to 24 hrs; assay type: functional, organism-based; details: Enterovirus B
Coxsackievirus B5 = assay: Antiviral activity against Coxsackievirus serotype B5 infected in african green monkey BGMK cells assessed as inhibition of virus induced cytopathic effect after 18 to 24 hrs; assay type: functional, organism-based; details: Enterovirus B
enterovirus D68 = assay: Antiviral activity against Enterovirus serotype 68 infected in african green monkey BGMK cells assessed as inhibition of virus induced cytopathic effect after 18 to 24 hrs; assay type: functional, organism-based; details: Enterovirus D
Human enterovirus 70 = assay: Antiviral activity against Enterovirus serotype 70 infected in african green monkey BGMK cells assessed as inhibition of virus induced cytopathic effect after 18 to 24 hrs; assay type: functional, cell-based, enterovirus D70; details: Enterovirus D
Enterovirus A71 = assay: Antiviral activity against Enterovirus serotype 71 infected in african green monkey BGMK cells assessed as inhibition of virus induced cytopathic effect after 18 to 24 hrs; assay type: functional, organism-based; details: Enterovirus A
[18] = Solubility of the compound; assay type: physicochemical

SMILES: COc1ccc(OCc2ccc(COc3c(Cl)cccc3Cl)cc2)c(Cl)c1
- EC50 (Enterovirus C [1]): 38 nM
- EC50 (Enterovirus C [2]): 27 nM
- EC50 (Enterovirus C [3]): 126 nM
- EC50 (Enterovirus C [4]): 19 nM
- EC50 (Enterovirus C [5]): 19 nM
- EC50 (Enterovirus C [6]): 7 nM
- EC50 (Enterovirus C [7]): 26 nM
- EC50 (Enterovirus C [8]): 3 nM
- EC50 (Enterovirus C [9]): 16 nM
- EC50 (Enterovirus C [10]): 42 nM
- EC50 (Enterovirus C [11]): 29 nM
- EC50 (Enterovirus C [12]): 62 nM
- EC50 (Enterovirus C [13]): 109 nM
- EC50 (Enterovirus C [14]): 20 nM
- selectivity ratio [15]: 75
- selectivity ratio [16]: 75
- Activity (HeLa): > 50 µg/mL
- Activity [17]: > 50 µg/mL
- EC50 (Coxsackievirus A9): 3.79 µM
- EC50 (Coxsackievirus B1): 3.79 µM
- EC50 (Coxsackievirus B2): 3.79 µM
- EC50 (Coxsackievirus B3): 3.79 µM
- EC50 (Coxsackievirus B4): 3.79 µM
- EC50 (Coxsackievirus B5): 3.79 µM
- MIC90 (enterovirus D68): 1.42 µM (≈ 0.602 µg/mL)
- EC50 (enterovirus D68; BGMK): 3.47 µM
- MIC90 (Human enterovirus 70): 1.42 µM (≈ 0.602 µg/mL)
- EC50 (Human enterovirus 70; BGMK): 3.47 µM
- MIC90 (Enterovirus A71): 1.42 µM (≈ 0.602 µg/mL)
- EC50 (Enterovirus A71; BGMK): 3.47 µM
- solubility [18]: 14 µM (≈ 5.93 µg/mL)

Source: ChEMBL document CHEMBL1649227, “In vitro antiviral activity of V-073 against polioviruses” (Antimicrob Agents Chemother, 2009)
